In this assay the test system is MV-4-11 cells. Briefly: Gene expression microarray analysis (Affymetrix PrimeView) and GSEA. It is filed as cell-based, human. Also on record: RFU PODN (11730768_x_at) / Fold change /veh PODN (11730768_x_at) / RFU LINC00158 (11744669_a_at) / Fold change /veh LINC00158 (11744669_a_at) / RFU DUSP10 (11751237_a_at) / Fold change /veh DUSP10 (11751237_a_at) / RFU ID3 (11757404_x_at) / Fold change /veh ID3 (11757404_x_at) / RFU PLEKHG5 (11737974_s_at) / Fold change /veh PLEKHG5 (11737974_s_at) / RFU LRRC4B (11730491_at) / Fold change /veh LRRC4B (11730491_at) / RFU GIMAP4 (11747438_a_at) / Fold change /veh GIMAP4 (11747438_a_at) / RFU KRT8 (11758183_x_at) / Fold change /veh KRT8 (11758183_x_at) / RFU CNN1 (11734310_a_at) / Fold change /veh CNN1 (11734310_a_at) / RFU VPS37D (11726825_at) / Fold change /veh VPS37D (11726825_at) / RFU C10orf10 (11716522_x_at) / Fold change /veh C10orf10 (11716522_x_at) / RFU KIR2DL2 /// KIR2DL4 /// KIR2DL5A /// KIR2DL5B /// KIR2DS1 /// KIR2DS2 /// KIR2DS3 /// KIR2DS4 /// KIR3DL3 /// KIR3DL3 /// KIR3DS1 (11738374_at) / Fold change /veh KIR2DL2 /// KIR2DL4 /// KIR2DL5A /// KIR2DL5B /// KIR2DS1 /// KIR2DS2 /// KIR2DS3 /// KIR2DS4 /// KIR3DL3 /// KIR3DL3 /// KIR3DS1 (11738374_at) / RFU C1QL1 (11718748_at) / Fold change /veh C1QL1 (11718748_at) / RFU TMPRSS4 (11747572_a_at) / Fold change /veh TMPRSS4 (11747572_a_at) / RFU HAMP (11756126_x_at) / Fold change /veh HAMP (11756126_x_at) / RFU RNFT2 (11725882_a_at) / Fold change /veh RNFT2 (11725882_a_at) / RFU NR4A2 (11747474_a_at) / Fold change /veh NR4A2 (11747474_a_at) / RFU ABCC12 (11746883_a_at) / Fold change /veh ABCC12 (11746883_a_at) / RFU TMEM136 (11760407_x_at) / Fold change /veh TMEM136 (11760407_x_at) / RFU CLDN22 /// WWC2 (11732394_at) / Fold change /veh CLDN22 /// WWC2 (11732394_at) / RFU HLA-DPB1 (11760878_x_at) / Fold change /veh HLA-DPB1 (11760878_x_at) / RFU SPINT1 (11716480_a_at) / Fold change /veh SPINT1 (11716480_a_at) / RFU GAP43 (11754022_s_at) / Fold change /veh GAP43 (11754022_s_at) / RFU A4GNT (11735810_at) / Fold change /veh A4GNT (11735810_at) / RFU PRB3 (11715151_x_at) / Fold change /veh PRB3 (11715151_x_at) / RFU TUBB4B (11761932_at) / Fold change /veh TUBB4B (11761932_at) / RFU CAPN14 (11732068_a_at) / Fold change /veh CAPN14 (11732068_a_at) / RFU TMCC2 (11721928_a_at) / Fold change /veh TMCC2 (11721928_a_at) / RFU IRGQ (11745062_a_at) / Fold change /veh IRGQ (11745062_a_at) / RFU FAM174B (11720279_a_at) / Fold change /veh FAM174B (11720279_a_at) / RFU TMPRSS4 (11748680_a_at) / Fold change /veh TMPRSS4 (11748680_a_at) / RFU FAM212B (11763350_a_at) / Fold change /veh FAM212B (11763350_a_at) / RFU PLEKHG5 (11743358_a_at) / Fold change /veh PLEKHG5 (11743358_a_at) / RFU ZSCAN30 (11745921_a_at) / Fold change /veh ZSCAN30 (11745921_a_at) / RFU CMKLR1 (11741424_a_at) / Fold change /veh CMKLR1 (11741424_a_at) / RFU LOC101060620 /// MAPK8IP1 (11723275_at) / Fold change /veh LOC101060620 /// MAPK8IP1 (11723275_at) / RFU SPTSSB (11747773_x_at) / Fold change /veh SPTSSB (11747773_x_at) / RFU PRSS12 (11739890_at) / Fold change /veh PRSS12 (11739890_at) / RFU BIN1 (11741810_x_at) / Fold change /veh BIN1 (11741810_x_at) / RFU WNT11 (11732464_a_at) / Fold change /veh WNT11 (11732464_a_at) / RFU C10orf10 (11716521_a_at) / Fold change /veh C10orf10 (11716521_a_at) / RFU C5orf56 (11738089_at) / Fold change /veh C5orf56 (11738089_at) / RFU CYB561 (11721691_x_at) / Fold change /veh CYB561 (11721691_x_at) / RFU ANKRD19P (11752326_a_at) / Fold change /veh ANKRD19P (11752326_a_at) / RFU OR2T12 /// OR2T33 /// OR2T8 (11738714_s_at) / Fold change /veh OR2T12 /// OR2T33 /// OR2T8 (11738714_s_at) / RFU VCAN (11748164_a_at) / Fold change /veh VCAN (11748164_a_at) / RFU JSRP1 (11732532_at) / Fold change /veh JSRP1 (11732532_at) / RFU KRTAP10-11 (11738290_x_at) / Fold change /veh KRTAP10-11 (11738290_x_at) / RFU MYO3A (11730013_a_at) / Fold change /veh MYO3A (11730013_a_at) / RFU EBF3 (11725865_a_at) / Fold change /veh EBF3 (11725865_a_at) / RFU CAMK2N1 (11719241_x_at) / Fold change /veh CAMK2N1 (11719241_x_at) / RFU C5orf56 (11738088_a_at) / Fold change /veh C5orf56 (11738088_a_at) / RFU OLFML3 (11715873_a_at) / Fold change /veh OLFML3 (11715873_a_at) / RFU LOC100653217 /// NTM (11731650_a_at) / Fold change /veh LOC100653217 /// NTM (11731650_a_at) / RFU MAPK11 (11762145_a_at) / Fold change /veh MAPK11 (11762145_a_at) / RFU FIZ1 (11724087_x_at) / Fold change /veh FIZ1 (11724087_x_at) / RFU OASL (11726364_x_at) / Fold change /veh OASL (11726364_x_at) / RFU SOX15 (11748057_x_at) / Fold change /veh SOX15 (11748057_x_at) / RFU CD79A (11719716_a_at) / Fold change /veh CD79A (11719716_a_at) / RFU HIST1H1D (11736915_at) / Fold change /veh HIST1H1D (11736915_at) / RFU CASKIN2 (11723855_a_at) / Fold change /veh CASKIN2 (11723855_a_at) / RFU LOC730098 (11760151_x_at) / Fold change /veh LOC730098 (11760151_x_at) / RFU OR4N2 (11742367_at) / Fold change /veh OR4N2 (11742367_at) / RFU PRRT2 (11749266_a_at) / Fold change /veh PRRT2 (11749266_a_at) / RFU SNX32 (11753110_a_at) / Fold change /veh SNX32 (11753110_a_at) / RFU CDHR5 (11726645_a_at) / Fold change /veh CDHR5 (11726645_a_at) / RFU RCAN1 (11760418_a_at) / Fold change /veh RCAN1 (11760418_a_at) / RFU FAM167A (11723789_a_at) / Fold change /veh FAM167A (11723789_a_at) / RFU FAM26E (11764081_at) / Fold change /veh FAM26E (11764081_at) / RFU ISYNA1 (11749810_s_at) / Fold change /veh ISYNA1 (11749810_s_at) / RFU ACY1 (11761880_at) / Fold change /veh ACY1 (11761880_at) / RFU 11764098_at / Fold change /veh 11764098_at / RFU SAMD14 (11745864_x_at) / Fold change /veh SAMD14 (11745864_x_at) / RFU NPB (11741838_a_at) / Fold change /veh NPB (11741838_a_at) / RFU TMPRSS6 (11731388_a_at) / Fold change /veh TMPRSS6 (11731388_a_at) / RFU KRTAP10-2 (11738614_at) / Fold change /veh KRTAP10-2 (11738614_at) / RFU ARHGAP8 /// PRR5-ARHGAP8 (11727945_x_at) / Fold change /veh ARHGAP8 /// PRR5-ARHGAP8 (11727945_x_at) / RFU KRTAP5-7 /// NADSYN1 (11734609_at) / Fold change /veh KRTAP5-7 /// NADSYN1 (11734609_at) / RFU RASL12 (11751679_a_at) / Fold change /veh RASL12 (11751679_a_at) / RFU CDKN2B (11736163_a_at) / Fold change /veh CDKN2B (11736163_a_at) / RFU PRF1 (11729649_at) / Fold change /veh PRF1 (11729649_at) / RFU, ZNF638 /// ZNF638-IT1 / Fold change vs veh, ZNF638 /// ZNF638-IT1 / RFU, PANK3 / Fold change vs veh, PANK3 / RFU, SH3YL1 / Fold change vs veh, SH3YL1 / RFU, ZEB2 / Fold change vs veh, ZEB2 / RFU, NRIP1 / Fold change vs veh, NRIP1 / RFU, PTTG1IP / Fold change vs veh, PTTG1IP / RFU, CAPN2 / Fold change vs veh, CAPN2 / RFU, MED14 / Fold change vs veh, MED14 / RFU, SNORA58 / Fold change vs veh, SNORA58 / RFU, C1orf63 / Fold change vs veh, C1orf63 / RFU, LRRFIP1 / Fold change vs veh, LRRFIP1 / RFU, NDUFAF7 / Fold change vs veh, NDUFAF7 / RFU, SLC12A2 / Fold change vs veh, SLC12A2 / RFU, IBTK / Fold change vs veh, IBTK / RFU, ESF1 / Fold change vs veh, ESF1 / Fold change vs veh, TMEM50B / RFU, TAOK1 / Fold change vs veh, TAOK1 / RFU, ACBD3 / Fold change vs veh, ACBD3 / RFU, TMA16 / Fold change vs veh, TMA16 / RFU, RWDD3 / Fold change vs veh, RWDD3 / RFU, BCAT1 / Fold change vs veh, BCAT1 / RFU, EDEM3 / Fold change vs veh, EDEM3 / RFU, TMEM33 / Fold change vs veh, TMEM33 / RFU, WDR75 / Fold change vs veh, WDR75 / RFU, AHCTF1 / Fold change vs veh, AHCTF1 / RFU, TFRC / Fold change vs veh, TFRC / RFU, ZDHHC17 / Fold change vs veh, ZDHHC17 / RFU, NOM1 / Fold change vs veh, NOM1 / RFU, ARL8B / Fold change vs veh, ARL8B / RFU, ZBTB11 / Fold change vs veh, ZBTB11 / RFU, TAMM41 / Fold change vs veh, TAMM41 / RFU, KIAA1704 /// LOC100996395 / Fold change vs veh, KIAA1704 /// LOC100996395 / RFU, ING1 / Fold change vs veh, ING1 / RFU, TRMT61B / Fold change vs veh, TRMT61B / RFU, FUBP3 / Fold change vs veh, FUBP3 / RFU, TP53 / Fold change vs veh, TP53 / RFU, TNKS2 / Fold change vs veh, TNKS2 / RFU, ZFP14 / Fold change vs veh, ZFP14 / RFU, ACTR2 / Fold change vs veh, ACTR2 / RFU, PPP3R1 / Fold change vs veh, PPP3R1 / RFU, PIK3R1 / Fold change vs veh, PIK3R1 / RFU, HNRNPA1 / Fold change vs veh, HNRNPA1 / RFU, RNF170 / Fold change vs veh, RNF170 / RFU, ZNF28 / Fold change vs veh, ZNF28 / RFU, RNGTT / Fold change vs veh, RNGTT / RFU, OGT / Fold change vs veh, OGT / RFU, BRD1 / Fold change vs veh, BRD1 / RFU, MARS / Fold change vs veh, MARS / RFU, ZNF655 / Fold change vs veh, ZNF655 / RFU, FAHD1 / Fold change vs veh, FAHD1 / RFU, BDP1 / Fold change vs veh, BDP1 / RFU, LRRCC1 / Fold change vs veh, LRRCC1 / RFU, ARID1A / Fold change vs veh, ARID1A / RFU, ZNF146 / Fold change vs veh, ZNF146 / RFU, ZNF330 / Fold change vs veh, ZNF330 / RFU, GPN3 / Fold change vs veh, GPN3 / RFU, C9orf123 / Fold change vs veh, C9orf123 / RFU, N4BP2L2 / Fold change vs veh, N4BP2L2 / RFU, ARFIP1 / Fold change vs veh, ARFIP1 / RFU, FAM179B / Fold change vs veh, FAM179B / RFU, BCL10 / Fold change vs veh, BCL10 / RFU, UHRF1BP1L / Fold change vs veh, UHRF1BP1L / RFU, BET1 / Fold change vs veh, BET1 / RFU, CNOT2 / Fold change vs veh, CNOT2 / RFU, ZNF268 / Fold change vs veh, ZNF268 / Fold change vs veh, ZNF507 / RFU, DGCR2 / Fold change vs veh, DGCR2 / RFU, WDSUB1 / Fold change vs veh, WDSUB1 / Fold change vs veh, HSP90B1 /// MIR3652 / RFU, ADSS / Fold change vs veh, ADSS / RFU, GK / Fold change vs veh, GK / RFU, ZNF148 / Fold change vs veh, ZNF148 / RFU, TAF9 / Fold change vs veh, TAF9 / RFU, SLC1A5 / Fold change vs veh, SLC1A5 / RFU, SLMO2 / Fold change vs veh, SLMO2 / RFU, ABCC4 / Fold change vs veh, ABCC4 / RFU, LOC101060439 /// RAP1B / Fold change vs veh, LOC101060439 /// RAP1B / RFU, RFX7 / Fold change vs veh, RFX7 / RFU, GTPBP10 / Fold change vs veh, GTPBP10 / RFU, CNEP1R1 / Fold change vs veh, CNEP1R1 / RFU, BIVM-ERCC5 /// ERCC5 / Fold change vs veh, BIVM-ERCC5 /// ERCC5 / RFU, ILF3 / Fold change vs veh, ILF3 / RFU 11762660_at / Fold change /veh 11762660_at / RFU VCAN (11757783_s_at) / Fold change /veh VCAN (11757783_s_at) / RFU DDX43 (11728927_at) / Fold change /veh DDX43 (11728927_at) / RFU KRT8 (11758188_x_at) / Fold change /veh KRT8 (11758188_x_at) / RFU NKD1 (11759106_at) / Fold change /veh NKD1 (11759106_at) / RFU SRD5A1 (11742802_a_at) / Fold change /veh SRD5A1 (11742802_a_at) / RFU TPSAB1 /// TPSB2 (11721975_s_at) / Fold change /veh TPSAB1 /// TPSB2 (11721975_s_at) / RFU GSTM3 (11746129_a_at) / Fold change /veh GSTM3 (11746129_a_at) / RFU IL23R (11737362_x_at) / Fold change /veh IL23R (11737362_x_at) / RFU TMEM51 (11727254_a_at) / Fold change /veh TMEM51 (11727254_a_at) / RFU PIWIL2 (11732686_x_at) / Fold change /veh PIWIL2 (11732686_x_at) / RFU ORM1 (11744905_x_at) / Fold change /veh ORM1 (11744905_x_at) / RFU CCDC152 (11743942_at) / Fold change /veh CCDC152 (11743942_at) / RFU ECM1 (11717891_a_at) / Fold change /veh ECM1 (11717891_a_at) / RFU IL23R (11748794_a_at) / Fold change /veh IL23R (11748794_a_at) / RFU TNFAIP8L3 (11732012_x_at) / Fold change /veh TNFAIP8L3 (11732012_x_at) / RFU MBOAT4 (11741988_at) / Fold change /veh MBOAT4 (11741988_at) / RFU 11764193_at / Fold change /veh 11764193_at / RFU TMEM53 (11763286_at) / Fold change /veh TMEM53 (11763286_at) / RFU MAGEB2 (11727129_at) / Fold change /veh MAGEB2 (11727129_at) / RFU TMEM200A (11744735_a_at) / Fold change /veh TMEM200A (11744735_a_at) / RFU CCDC152 (11751479_a_at) / Fold change /veh CCDC152 (11751479_a_at) / RFU FAM211A (11726209_a_at) / Fold change /veh FAM211A (11726209_a_at) / RFU RGS16 (11746705_a_at) / Fold change /veh RGS16 (11746705_a_at) / RFU VCAN (11755009_s_at) / Fold change /veh VCAN (11755009_s_at) / RFU RHOB (11743442_s_at) / Fold change /veh RHOB (11743442_s_at) / RFU RGS16 (11720943_a_at) / Fold change /veh RGS16 (11720943_a_at) / RFU RGS16 (11720944_at) / Fold change /veh RGS16 (11720944_at) / RFU, VPS4B / Fold change vs veh, VPS4B / RFU, CREB1 / Fold change vs veh, CREB1 / RFU, DNAJC13 / Fold change vs veh, DNAJC13 / RFU, GNAQ / Fold change vs veh, GNAQ / RFU, CDK5R1 / Fold change vs veh, CDK5R1 / RFU, ZRANB3 / Fold change vs veh, ZRANB3 / RFU, CUL4A / Fold change vs veh, CUL4A / RFU, CCNY / Fold change vs veh, CCNY / RFU, UFL1 / Fold change vs veh, UFL1 / RFU, COG3 / Fold change vs veh, COG3 / RFU, DIAPH2 / Fold change vs veh, DIAPH2 / RFU, SKA2 / Fold change vs veh, SKA2 / RFU, AFF3 / Fold change vs veh, AFF3 / RFU, LMF1 / Fold change vs veh, LMF1 / RFU, IPO11 / Fold change vs veh, IPO11 / RFU, DFFB / Fold change vs veh, DFFB / RFU, FOXP1 / Fold change vs veh, FOXP1 / RFU, CARD8 / Fold change vs veh, CARD8 / RFU, STRN3 / Fold change vs veh, STRN3 / RFU, ADK / Fold change vs veh, ADK / RFU, RASSF2 / Fold change vs veh, RASSF2 / RFU, WIPF1 / Fold change vs veh, WIPF1 / RFU, LARP1B / Fold change vs veh, LARP1B / RFU, RASA1 / Fold change vs veh, RASA1 / RFU, RB1 / Fold change vs veh, RB1 / RFU, PPFIA1 / Fold change vs veh, PPFIA1 / RFU, MAT2A / Fold change vs veh, MAT2A / RFU, CCT5 / Fold change vs veh, CCT5 / RFU, WDR92 / Fold change vs veh, WDR92 / RFU, CUX1 / Fold change vs veh, CUX1 / RFU, TTC7A / Fold change vs veh, TTC7A / RFU, TMEM135 / Fold change vs veh, TMEM135 / RFU, DEPTOR / Fold change vs veh, DEPTOR / RFU, CPM / Fold change vs veh, CPM / RFU, DNAJB6 / Fold change vs veh, DNAJB6 / RFU, CACNA2D3 / Fold change vs veh, CACNA2D3 / RFU, DTX4 / Fold change vs veh, DTX4 / RFU, TFCP2 / Fold change vs veh, TFCP2 / RFU, GMCL1 /// GMCL1P1 / Fold change vs veh, GMCL1 /// GMCL1P1 / RFU, AEBP2 / Fold change vs veh, AEBP2 / RFU, SNHG1 /// SNORD22 /// SNORD25 /// SNORD26 /// SNORD27 /// SNORD28 /// SNORD29 /// SNORD31 / Fold change vs veh, SNHG1 /// SNORD22 /// SNORD25 /// SNORD26 /// SNORD27 /// SNORD28 /// SNORD29 /// SNORD31 / Fold change (Aza/veh), C12orf56 (ProbeSet 11735607_a_at) / Fold change (ACY-1035/veh), C12orf56 (ProbeSet 11735607_a_at) / Fold change (Aza/veh), FGFR1OP (ProbeSet 11751329_s_at) / Fold change (ACY-1035/veh), FGFR1OP (ProbeSet 11751329_s_at) / Fold change (Aza/veh), VPS36 (ProbeSet 11739960_a_at) / Fold change (ACY-1035/veh), VPS36 (ProbeSet 11739960_a_at) / RFU SYPL1 (11715823_x_at) / Fold change /veh SYPL1 (11715823_x_at) / RFU IGFBP7 (11715501_s_at) / Fold change /veh IGFBP7 (11715501_s_at) / RFU REEP3 (11722064_at) / Fold change /veh REEP3 (11722064_at) / RFU IGLL1 (11728026_x_at) / Fold change /veh IGLL1 (11728026_x_at): dose or concentration left out as unconfirmed. Particulars: MV-4-11 cells, 48 hours.

Regarding `Nc1ccc(-c2cccs2)cc1NC(=O)c1ccc2c(c1)cc(C1CC1)n2CCN1CCOCC1` [ACY-1035], the “RFU CYB561 (11721691_x_at)” value is recorded as 11.94 RFU.

Values taken from PMC5218480 (PLoS ONE, 2017).
